# Reference: patent US7074824B2, “Pharmaceutical compositions containing beta-lapachone, or derivatives or analogs thereof, and methods of using same” (Arqule, Inc., priority 2001, dated 2006)
# Columns and labels:
# human carcinoma cells = assay: Colony formation assay of β-lapachone combined with Taxol®; type: cell-based; settings: 4 h exposure, colonies scored after 10–20 days; ovarian, breast, prostate, melanoma, lung and pancreatic cell lines, FIG. 4
# Description: In these studies, exponentially growing cells were seeded at 1,000 cells per well in six-well plates and allowed to attach for 48 h. β-lapachone and/or Taxol®, solubilized in DMSO, were added to the wells. Control wells were treated with equivalent volumes of DMSO. After 4 h cells were rinsed and fresh medium was added. Cultures were observed daily for 10–20 days and then were fixed and stained. Colonies of greater than 30 cells were scored as survivors.
# [1] = system: Human ovarian cancer cells (36M2); assay: Human ovarian cancer xenograft model, β-lapachone in Lipiodol and Taxol®; type: in vivo, athymic female nude mice; settings: i.p., 10 cycles
# Description: Human ovarian cancer cells (36M2, originally isolated from malignant ascites) were inoculated by i.p. injection into athymic female nude mice 24 h after irradiation. In this model, metastatic foci form approximately 1 week after inoculation, and tumor nodules of the peritoneum and malignant ascites develop in 4–5 weeks. Ten days after tumor inoculation (10×10^6 cells), treatment regimens were initiated. The control group was treated with vehicle alone. In each typical treatment cycle, the β-lapachone alone group was treated with 25–50 mg/kg i.p. of β-lapachone in Lipiodol solution and the Taxol® alone group was treated at 1 mg/kg i.p. (Taxol® formulation diluted in Lipiodol), both followed 24 h later by i.p. injection of vehicle. In the combination group, nude mice were treated with β-lapachone at 25–50 mg/kg, followed 24 h later by Taxol® at 1 mg/kg. All groups were treated for 10 cycles, with a 1-day break between each cycle. […] Host toxicity was evaluated by general appearance and body weight.
# A2780DDP = settings: stated as typical value, read-out: IC50 concentration; cited from earlier work
SMILES,inhibition of cancer cell survival (colony formation) (human carcinoma cells),"decrease in tumor number versus control ([1]; assessed day 50, β-lapachone 25–50 mg/kg in Lipiodol, Taxol® 1 mg/kg)",size of the tumor nodules and amount of ascites ([1]; laparotomy at day 50),IC50 (A2780DDP)
"CC(=O)O[C@H]1C(=O)[C@@]2(C)[C@H]([C@H](OC(=O)c3ccccc3)[C@]3(O)C[C@H](OC(=O)[C@H](O)[C@@H](NC(=O)c4ccccc4)c4ccccc4)C(C)=C1C3(C)C)[C@]1(OC(C)=O)CO[C@@H]1C[C@@H]2O [Taxol®, paclitaxel, reference compound]",much less effective,~60%,considerable reduction in the size of the tumor nodules and the amount of ascites,
N.N.[Cl][Pt][Cl] [cisplatin],,,,> 100 µM
